Calls of active or inactive are those of the source. The calls are words filed in the database; no cut-off is given here.

The first data set concerns Nucleic Acid. As to the kind of experiment: Binding affinity to AMP in citric acid buffer at pH 5 by fluorescence titration assay relative to control. In kind it is nucleic-acid assay.
Details: not given
Consider `Cc1c2cc(NC(=O)NCCCCCCNC(=O)Nc3ccc4c(c3)c(C)[n+](C)c3ccccc43)ccc2c2ccccc2[n+]1C.O=S(=O)([O-])O.O=S(=O)([O-])O`, for which the RFU came to 3.8.

In another data set the test system is Calf thymus DNA. As to the kind of experiment: Binding affinity to calf thymus DNA assessed as change in melting temperature at compound to DNA molar ratio of 0.3 at pH 7 by thermal denaturation assay. In kind it is nucleic-acid assay. As to conditions: Bos taurus.
A word on the ΔTm: it is the shift of the melting midpoint relative to a reference. On to `Cc1c2cc(NC(=O)NCCCCCCNC(=O)Nc3ccc4c(c3)c(C)[n+](C)c3ccccc43)ccc2c2ccccc2[n+]1C.O=S(=O)([O-])O.O=S(=O)([O-])O`, for which the thermal shift (ΔTm) is 5.5 °C.

The next data set relates to Calf thymus DNA. As to the kind of experiment: Binding affinity to calf thymus DNA in sodium cacodylate buffer at pH 7 by fluorescence titration assay. In kind it is nucleic-acid assay. As to conditions: Bos taurus.
`Cc1c2cc(NC(=O)NCCCCCCNC(=O)Nc3ccc4c(c3)c(C)[n+](C)c3ccccc43)ccc2c2ccccc2[n+]1C.O=S(=O)([O-])O.O=S(=O)([O-])O`: the log Ks came out at 6.2.

The test system of a further data set is Nucleic Acid. As to the kind of experiment: Binding affinity to GMP in sodium cacodylate buffer at pH 7 by fluorescence titration assay relative to control. In kind it is nucleic-acid assay.
Details: not given
The compound `Cc1c2cc(NC(=O)NCCCCCCNC(=O)Nc3ccc4c(c3)c(C)[n+](C)c3ccccc43)ccc2c2ccccc2[n+]1C.O=S(=O)([O-])O.O=S(=O)([O-])O` had an RFU of 6.3.

In a further data set the test system is Nucleic Acid. As to the kind of experiment: Binding affinity to poly A-poly U RNA assessed as biphasic transitions of change in melting temperature at compound to DNA molar ratio of 0.2 at pH 5 by thermal denaturation assay. In kind it is nucleic-acid assay.
Details: not given
Turning to `Cc1c2cc(NC(=O)NCCCCCCNC(=O)Nc3ccc4c(c3)c(C)[n+](C)c3ccccc43)ccc2c2ccccc2[n+]1C.O=S(=O)([O-])O.O=S(=O)([O-])O`, the ΔTm was -1.2 °C.

The test system of the next data set is Calf thymus DNA. As to the kind of experiment: Binding affinity to calf thymus DNA assessed as change in melting temperature at compound to DNA molar ratio of 0.2 at pH 7 by thermal denaturation assay. As to conditions: Bos taurus. The class given is nucleic-acid assay.
Take `Cc1c2cc(NC(=O)NCCCCCCNC(=O)Nc3ccc4c(c3)c(C)[n+](C)c3ccccc43)ccc2c2ccccc2[n+]1C.O=S(=O)([O-])O.O=S(=O)([O-])O`: the thermal shift (ΔTm) stood at 3.9 °C.

For a further data set, the system named is Caco-2. Description: Cytotoxicity against human Caco-2 cells at 0.1 to 100 uM after 72 hrs by MTT assay. The class given is functional, cell-based.
Details: not given
(In general: Formazan colour is commonly taken as a measure of viable cells.)
`Cc1c2cc(NC(=O)NCCCCCCNC(=O)Nc3ccc4c(c3)c(C)[n+](C)c3ccccc43)ccc2c2ccccc2[n+]1C.O=S(=O)([O-])O.O=S(=O)([O-])O`: the outcome was Active.

For the next data set, the system named is Nucleic Acid. Description: Binding affinity to poly dA-poly dT RNA in sodium cacodylate buffer at pH 7 by fluorescence titration assay. The class given is nucleic-acid assay.
Details: not given
The compound `Cc1c2cc(NC(=O)NCCCCCCNC(=O)Nc3ccc4c(c3)c(C)[n+](C)c3ccccc43)ccc2c2ccccc2[n+]1C.O=S(=O)([O-])O.O=S(=O)([O-])O` displayed a log Ks of 5.3.

In a further data set the test system is Nucleic Acid. As to the kind of experiment: Binding affinity to poly dA-poly dT RNA in sodium cacodylate buffer at pH 7 by UV-v titration assay. The class given is nucleic-acid assay.
Details: not given
On to `Cc1c2cc(NC(=O)NCCCCCCNC(=O)Nc3ccc4c(c3)c(C)[n+](C)c3ccccc43)ccc2c2ccccc2[n+]1C.O=S(=O)([O-])O.O=S(=O)([O-])O`, for which the log Ks amounted to 5.6.

The test system of the next data set is Nucleic Acid. As to the kind of experiment: Binding affinity to […] assessed as change in melting temperature at compound to DNA molar ratio of 0.2 at pH 7 by thermal denaturation assay. In kind it is nucleic-acid assay.
Details: not given
As to `Cc1c2cc(NC(=O)NCCCCCCNC(=O)Nc3ccc4c(c3)c(C)[n+](C)c3ccccc43)ccc2c2ccccc2[n+]1C.O=S(=O)([O-])O.O=S(=O)([O-])O`, the ΔTm turned out to be 5.2 °C.

The next data set concerns MIA PaCa-2. As to the kind of experiment: Cytotoxicity against human MIAPaCa2 cells at 100 uM after 72 hrs by MTT assay. The class given is functional. As to conditions: MIA PaCa-2, 72 h.
By inhibition is commonly meant the drop in the measured response relative to a control, in per cent. In the case of `Cc1c2cc(NC(=O)NCCCCCCNC(=O)Nc3ccc4c(c3)c(C)[n+](C)c3ccccc43)ccc2c2ccccc2[n+]1C.O=S(=O)([O-])O.O=S(=O)([O-])O`, testing at 100 µM gave an inhibition of 43.1%.

In another data set the test system is MIA PaCa-2. As to the kind of experiment: Cytotoxicity against human MIAPaCa2 cells at 0.1 to 100 uM after 72 hrs by MTT assay. The class given is functional, cell-based.
Details: not given
As to `Cc1c2cc(NC(=O)NCCCCCCNC(=O)Nc3ccc4c(c3)c(C)[n+](C)c3ccccc43)ccc2c2ccccc2[n+]1C.O=S(=O)([O-])O.O=S(=O)([O-])O`, the outcome was Active.

A further data set concerns Nucleic Acid. Description: Binding affinity to poly dA-poly dT RNA in citric acid buffer at pH 5 by fluorescence titration assay relative to control. The class given is nucleic-acid assay.
Details: not given
Compound `Cc1c2cc(NC(=O)NCCCCCCNC(=O)Nc3ccc4c(c3)c(C)[n+](C)c3ccccc43)ccc2c2ccccc2[n+]1C.O=S(=O)([O-])O.O=S(=O)([O-])O` showed an RFU of 24.

A further data set relates to Nucleic Acid. Description: Binding affinity to […] assessed as melting temperature at compound to DNA molar ratio of 0.3 at pH 7 by thermal denaturation assay. In kind it is nucleic-acid assay.
Details: not given
The Tm is the temperature at the midpoint of the melting transition. For the compound `Cc1c2cc(NC(=O)NCCCCCCNC(=O)Nc3ccc4c(c3)c(C)[n+](C)c3ccccc43)ccc2c2ccccc2[n+]1C.O=S(=O)([O-])O.O=S(=O)([O-])O`, the melting temperature (Tm) stood at 71.3 °C.

For a further data set, the system named is Nucleic Acid. As to the kind of experiment: Binding affinity to UMP in sodium cacodylate buffer at pH 7 by fluorescence titration assay relative to control. The class given is nucleic-acid assay.
Details: not given
With `Cc1c2cc(NC(=O)NCCCCCCNC(=O)Nc3ccc4c(c3)c(C)[n+](C)c3ccccc43)ccc2c2ccccc2[n+]1C.O=S(=O)([O-])O.O=S(=O)([O-])O`, the RFU turned out to be 3.5.

Another data set relates to HeLa. Description: Cytotoxicity against human HeLa cells at 0.1 to 100 uM after 72 hrs by MTT assay. In kind it is functional, cell-based.
Details: not given
On to `Cc1c2cc(NC(=O)NCCCCCCNC(=O)Nc3ccc4c(c3)c(C)[n+](C)c3ccccc43)ccc2c2ccccc2[n+]1C.O=S(=O)([O-])O.O=S(=O)([O-])O`, for which the result was Active.

A further data set relates to Nucleic Acid. Description: Binding affinity to […] assessed as melting temperature at compound to DNA molar ratio of 0.2 at pH 7 by thermal denaturation assay. The class given is nucleic-acid assay.
Details: not given
Turning to `Cc1c2cc(NC(=O)NCCCCCCNC(=O)Nc3ccc4c(c3)c(C)[n+](C)c3ccccc43)ccc2c2ccccc2[n+]1C.O=S(=O)([O-])O.O=S(=O)([O-])O`, the Tm is 70.1 °C.

The test system of a further data set is Nucleic Acid. Description: Binding affinity to GMP in citric acid buffer at pH 5 by fluorescence titration assay relative to control. In kind it is nucleic-acid assay.
Details: not given
Compound `Cc1c2cc(NC(=O)NCCCCCCNC(=O)Nc3ccc4c(c3)c(C)[n+](C)c3ccccc43)ccc2c2ccccc2[n+]1C.O=S(=O)([O-])O.O=S(=O)([O-])O` gave an RFU of 31.6.

For the next data set, the system named is Nucleic Acid. Description: Binding affinity to poly A-poly U RNA in citric acid buffer at pH 5 by fluorescence titration assay relative to control.
Details: not given
In kind it is nucleic-acid assay.
The compound `Cc1c2cc(NC(=O)NCCCCCCNC(=O)Nc3ccc4c(c3)c(C)[n+](C)c3ccccc43)ccc2c2ccccc2[n+]1C.O=S(=O)([O-])O.O=S(=O)([O-])O` had an RFU of 20.

The subject of another data set is Calf thymus DNA. As to the kind of experiment: Binding affinity to calf thymus DNA assessed as melting temperature at compound to DNA molar ratio of 0.3 at pH 7 by thermal denaturation assay. The class given is nucleic-acid assay. The following applies: Bos taurus.
As to `Cc1c2cc(NC(=O)NCCCCCCNC(=O)Nc3ccc4c(c3)c(C)[n+](C)c3ccccc43)ccc2c2ccccc2[n+]1C.O=S(=O)([O-])O.O=S(=O)([O-])O`, the Tm stood at 84.8 °C.

Test system in another data set: not listed separately
As to the kind of experiment: Solubility of the compound in water. The class given is physicochemical. As to conditions: buffer.
The solubility is the dissolved amount per volume that the medium holds. A low value points to a poorly soluble substance. For `Cc1c2cc(NC(=O)NCCCCCCNC(=O)Nc3ccc4c(c3)c(C)[n+](C)c3ccccc43)ccc2c2ccccc2[n+]1C.O=S(=O)([O-])O.O=S(=O)([O-])O`, the concentration in solution (solubility) was 1240 µM.

In a further data set the test system is Calf thymus DNA. As to the kind of experiment: Binding affinity to calf thymus DNA assessed as change in melting temperature at compound to DNA molar ratio of 0.3 at pH 5 by thermal denaturation assay. The class given is nucleic-acid assay. As to conditions: Bos taurus.
Turning to `Cc1c2cc(NC(=O)NCCCCCCNC(=O)Nc3ccc4c(c3)c(C)[n+](C)c3ccccc43)ccc2c2ccccc2[n+]1C.O=S(=O)([O-])O.O=S(=O)([O-])O`, the ΔTm turned out to be 15.7 °C.

The subject of another data set is Nucleic Acid. Description: Binding affinity to poly A-poly U RNA assessed as melting temperature at compound to DNA molar ratio of 0.3 at pH 7 by thermal denaturation assay.
Details: not given
The class given is nucleic-acid assay.
As to `Cc1c2cc(NC(=O)NCCCCCCNC(=O)Nc3ccc4c(c3)c(C)[n+](C)c3ccccc43)ccc2c2ccccc2[n+]1C.O=S(=O)([O-])O.O=S(=O)([O-])O`, the Tm is 51.5 °C.

Source of the values: ChEMBL document CHEMBL1208667, “Permanent positive charge strongly influences DNA/RNA binding and antiproliferative activity of urea-phenanthridinium conjugates” (Eur J Med Chem, 2010).
